Where two headings read alike, the source gives them in different places.
Assays:
NCI-60 cancer panel = conditions: average across the cell lines of the concentration at which growth is inhibited 50%; unit in the High Conc. footnote; cited from earlier work
CAG myeloma cell line = assay: CellTiter-Glo luminescent cell viability assay, CAG; assay type: cell-based, human; parameters: unit of the concentration uncertain
Protocol: (§1) The dosage of each derivative was set at 2, 0.2 and 0.02 mM. A cell culture medium control and 0.5% DMSO control was maintained in each experiment. The cell viability was tested each day over a period of five days using the CellTiter-Glo luminescent cell viability assay kit from Promega Co.
(§2) Cell Titer-Glo luminescent cell viability assay kit from Promega Co (Madison, Wis.) was used to determine cell growth inhibition by the various compounds tested. The kit determines cell viability by quantifying the amount of ATP present in the cell culture medium. Presence of ATP signals the presence of metabolically active cells (3). The intensity of luminescence was measured by a computerized luminometer (Promega, Co. Madison, Wis.). Each well was read five times within 30 minutes of adding Cell Titer-Glo reagent mixture.
(§3) Cells were contacted with the antineoplastic agents in ninety six well culture plates. The concentration of each neoplastic agent was maintained a constant. A cell culture medium control and 0.5% DMSO control were maintained in each set of experiments. The cell viability was tested every day using the CellTiter-Glo luminescent cell viability kit from Promega Co. (Madison, Wis.) for a period of five days.

Ark myeloma cell line = assay: CellTiter-Glo luminescent cell viability assay, Ark; assay type: cell-based, human; parameters: unit of the concentration uncertain
Protocol: as §1, §2, §3

[1] = tested on: RPMI8226 myeloma cell line; assay: CellTiter-Glo luminescent cell viability assay, RPMI8226; assay type: cell-based, human; parameters: unit of the concentration uncertain
Protocol: as §1
as §2, with “mixture. […]” for “mixture.”

U266 myeloma cell line = tested on: U266 myeloma cell line; parameters: cell viability (CellTiter-Glo luminescent assay): dose or concentration left out as unconfirmed; conditions: U266
Protocol: as §1
U266 cell line was one of 12 myeloma cell lines used in screening of anti-myeloma agents. In FIG. 10A, cells were treated with 14 ellipticine derivatives (0.5 mM) obtained from the DTP; control cells were untreated. Ellipticine derivatives are coded with NSC identifiers. For 5 days, cell viability was measured every 24 hours using CellTiter-Glo Luminescent Assay. […] In FIG. 10B, U266 cells, along with six other myeloma cell lines, were co-cultured in direct contact with human fetal bone mesenchymal cells and treated with EPED3 (0.5 mM and 2 mM) or Velcade (0.5 mM); control cells were untreated. Cell proliferation was assessed by MTT assay every 24 hours for 5 days. […] Error bars indicate standard deviation.
as §2, §3

## Cc1ccc(S(=O)(=O)N=NC=C2c3ccccc3N(O)c3ccccc32)cc1 [NSC 627891]
NCI-60 cancer panel
  Mean GI50: −5.43 log^10 molar

## O=C1N(c2ccc(Cl)cc2)C(=O)C2(SC=NN2Cc2ccccc2)N1c1ccc(Cl)cc1 (stereo not drawn) [NSC 630740]
NCI-60 cancer panel
  Mean GI50: −4.26 log^10 molar

## Cc1cc2[nH]c3c(C#N)c(-c4ccccc4)c(N=Nc4cccc(C(F)(F)F)c4)c(=O)n3c2cc1C [NSC 699959]
NCI-60 cancer panel
  Mean GI50: −4.53 log^10 molar

## Nc1ncnc2c1ncn2[C@@H]1C=C(CO)[C@@H](O)[C@H]1O [NSC 316458, Neplanocin A]
NCI-60 cancer panel
  Mean GI50: −5.43 log^10 molar

## CCCCC(=O)OC[n+]1ccc2c(C)c3[nH]c4ccc(OC)cc4c3c(C)c2c1.[I-] [NSC 637126]
NCI-60 cancer panel
  Mean GI50: −6.40 log^10 molar

## COc1ccc2[nH]c3c(C)c4cc[n+](COC(=O)c5ccccc5)cc4c(C)c3c2c1 [NSC 632620]
NCI-60 cancer panel
  Mean GI50: −6.52 log^10 molar

## C#CCN(N=O)C(=O)NCCCC(NC(C)=O)C(=O)NCc1ccccc1 (stereo not drawn) [NSC 645583]
NCI-60 cancer panel
  Mean GI50: −4.17 log^10 molar

## CNC(=S)NC(=S)N(C)C [NSC 622693]
NCI-60 cancer panel
  Mean GI50: −4.53 log^10 molar

## O=C(/C=C/c1ccc(Cl)c(Cl)c1)c1ccc(Cl)cc1Cl [NSC 640531]
NCI-60 cancer panel
  Mean GI50: −4.99 log^10 molar

## C[C@@H]1C[C@@H]2OC(=O)[C@]3(C)[C@H]2[C@@H](OC3(C)O)[C@]2(C)C(=O)C=C[C@@H]12 (stereo partly drawn) [NSC 19942, Tenulin]
NCI-60 cancer panel
  Mean GI50: −4.68 log^10 molar

## CN(C)CC1CCCCCC(Br)C1=O.O=C(O)C(=O)O (stereo not drawn) [NSC 130789]
NCI-60 cancer panel
  Mean GI50: −4.96 log^10 molar

## CCCCCCC(=O)OC[n+]1ccc2c(C)c3[nH]c4ccccc4c3c(C)c2c1 [NSC 637132]
NCI-60 cancer panel
  Mean GI50: −6.09 log^10 molar

## C=C1C(OC(=O)/C=C/c2ccccc2)CC(OC(C)=O)C2(C)C1CC1CC(OC(C)=O)C(C)=C(C(OC(C)=O)C2OC(C)=O)C1(C)C (stereo not drawn) [NSC 636859, Cuspidatin C]
NCI-60 cancer panel
  Mean GI50: −4.46 log^10 molar

## Cc1c2ccncc2c(C)c2c1[nH]c1ccccc12 [Ellipticine, 5,11-Dimethyl-6H-Pyridol[4,3]carbazole]
CAG myeloma cell line; 0.02 (unit uncertain), Day 1
  cell viability (CellTiter-Glo luminescent assay): 200,429
CAG myeloma cell line; 0.02 (unit uncertain), Day 2
  cell viability (CellTiter-Glo luminescent assay): 557,030
CAG myeloma cell line; 0.02 (unit uncertain), Day 3
  cell viability (CellTiter-Glo luminescent assay): 1,243,718
CAG myeloma cell line; 0.02 (unit uncertain), Day 4
  cell viability (CellTiter-Glo luminescent assay): 2,718,974
CAG myeloma cell line; 0.02 (unit uncertain), Day 5
  cell viability (CellTiter-Glo luminescent assay): 4,443,641
CAG myeloma cell line; 0.2 (unit uncertain), Day 1
  cell viability (CellTiter-Glo luminescent assay): 196,263
CAG myeloma cell line; 0.2 (unit uncertain), Day 2
  cell viability (CellTiter-Glo luminescent assay): 541,300
CAG myeloma cell line; 0.2 (unit uncertain), Day 3
  cell viability (CellTiter-Glo luminescent assay): 1,117,650
CAG myeloma cell line; 0.2 (unit uncertain), Day 4
  cell viability (CellTiter-Glo luminescent assay): 2,568,444
CAG myeloma cell line; 0.2 (unit uncertain), Day 5
  cell viability (CellTiter-Glo luminescent assay): 4,443,292
CAG myeloma cell line; 2 (unit uncertain), Day 1
  cell viability (CellTiter-Glo luminescent assay): 136,450
CAG myeloma cell line; 2 (unit uncertain), Day 2
  cell viability (CellTiter-Glo luminescent assay): 200,722
CAG myeloma cell line; 2 (unit uncertain), Day 3
  cell viability (CellTiter-Glo luminescent assay): 234,414
CAG myeloma cell line; 2 (unit uncertain), Day 4
  cell viability (CellTiter-Glo luminescent assay): 308,480
CAG myeloma cell line; 2 (unit uncertain), Day 5
  cell viability (CellTiter-Glo luminescent assay): 281,302
Ark myeloma cell line; 0.02 (unit uncertain), Day 1
  cell viability (CellTiter-Glo luminescent assay): 120,709
Ark myeloma cell line; 0.02 (unit uncertain), Day 2
  cell viability (CellTiter-Glo luminescent assay): 208,608
Ark myeloma cell line; 0.02 (unit uncertain), Day 3
  cell viability (CellTiter-Glo luminescent assay): 268,420
Ark myeloma cell line; 0.02 (unit uncertain), Day 4
  cell viability (CellTiter-Glo luminescent assay): 802,063
Ark myeloma cell line; 0.02 (unit uncertain), Day 5
  cell viability (CellTiter-Glo luminescent assay): 1,049,792
Ark myeloma cell line; 0.2 (unit uncertain), Day 1
  cell viability (CellTiter-Glo luminescent assay): 125,251
Ark myeloma cell line; 0.2 (unit uncertain), Day 2
  cell viability (CellTiter-Glo luminescent assay): 230,950
Ark myeloma cell line; 0.2 (unit uncertain), Day 3
  cell viability (CellTiter-Glo luminescent assay): 331,985
Ark myeloma cell line; 0.2 (unit uncertain), Day 4
  cell viability (CellTiter-Glo luminescent assay): 877,082
Ark myeloma cell line; 0.2 (unit uncertain), Day 5
  cell viability (CellTiter-Glo luminescent assay): 1,183,902
Ark myeloma cell line; 2 (unit uncertain), Day 1
  cell viability (CellTiter-Glo luminescent assay): 86,010
Ark myeloma cell line; 2 (unit uncertain), Day 2
  cell viability (CellTiter-Glo luminescent assay): 98,439
Ark myeloma cell line; 2 (unit uncertain), Day 3
  cell viability (CellTiter-Glo luminescent assay): 70,824
Ark myeloma cell line; 2 (unit uncertain), Day 4
  cell viability (CellTiter-Glo luminescent assay): 44,913
Ark myeloma cell line; 2 (unit uncertain), Day 5
  cell viability (CellTiter-Glo luminescent assay): 10,996
[1]; 0.02 (unit uncertain), Day 1
  cell viability (CellTiter-Glo luminescent assay): 110,290
[1]; 0.02 (unit uncertain), Day 2
  cell viability (CellTiter-Glo luminescent assay): 244,140
[1]; 0.02 (unit uncertain), Day 3
  cell viability (CellTiter-Glo luminescent assay): 390,151
[1]; 0.02 (unit uncertain), Day 4
  cell viability (CellTiter-Glo luminescent assay): 898,067
[1]; 0.02 (unit uncertain), Day 5
  cell viability (CellTiter-Glo luminescent assay): 966,857
[1]; 0.2 (unit uncertain), Day 1
  cell viability (CellTiter-Glo luminescent assay): 107,014
[1]; 0.2 (unit uncertain), Day 2
  cell viability (CellTiter-Glo luminescent assay): 235,145
[1]; 0.2 (unit uncertain), Day 3
  cell viability (CellTiter-Glo luminescent assay): 355,794
[1]; 0.2 (unit uncertain), Day 4
  cell viability (CellTiter-Glo luminescent assay): 774,806
[1]; 0.2 (unit uncertain), Day 5
  cell viability (CellTiter-Glo luminescent assay): 921,077
[1]; 2 (unit uncertain), Day 1
  cell viability (CellTiter-Glo luminescent assay): 87,440
[1]; 2 (unit uncertain), Day 2
  cell viability (CellTiter-Glo luminescent assay): 115,263
[1]; 2 (unit uncertain), Day 3
  cell viability (CellTiter-Glo luminescent assay): 110,776
[1]; 2 (unit uncertain), Day 4
  cell viability (CellTiter-Glo luminescent assay): 126,944
[1]; 2 (unit uncertain), Day 5
  cell viability (CellTiter-Glo luminescent assay): 85,699
U266 myeloma cell line; 0.02, Day 1
  cell viability (CellTiter-Glo luminescent assay): 31,950
U266 myeloma cell line; 0.02, Day 2
  cell viability (CellTiter-Glo luminescent assay): 47,812
U266 myeloma cell line; 0.02, Day 3
  cell viability (CellTiter-Glo luminescent assay): 66,571
U266 myeloma cell line; 0.02, Day 4
  cell viability (CellTiter-Glo luminescent assay): 115,083
U266 myeloma cell line; 0.02, Day 5
  cell viability (CellTiter-Glo luminescent assay): 152,839
U266 myeloma cell line; 0.2, Day 1
  cell viability (CellTiter-Glo luminescent assay): 32,490
U266 myeloma cell line; 0.2, Day 2
  cell viability (CellTiter-Glo luminescent assay): 47,622
U266 myeloma cell line; 0.2, Day 3
  cell viability (CellTiter-Glo luminescent assay): 62,648
U266 myeloma cell line; 0.2, Day 4
  cell viability (CellTiter-Glo luminescent assay): 106,989
U266 myeloma cell line; 0.2, Day 5
  cell viability (CellTiter-Glo luminescent assay): 132,439
U266 myeloma cell line; 2, Day 1
  cell viability (CellTiter-Glo luminescent assay): 23,680
U266 myeloma cell line; 2, Day 2
  cell viability (CellTiter-Glo luminescent assay): 31,682
U266 myeloma cell line; 2, Day 3
  cell viability (CellTiter-Glo luminescent assay): 33,129
U266 myeloma cell line; 2, Day 4
  cell viability (CellTiter-Glo luminescent assay): 40,656
U266 myeloma cell line; 2, Day 5
  cell viability (CellTiter-Glo luminescent assay): 38,403

## CSc1nc[nH]c1C(N)=S [NSC 684041]
NCI-60 cancer panel
  Mean GI50: −4.11 log^10 molar

## O=C1/C(=C/C=C/c2ccccc2)CCC1CNc1ccccc1 (stereo not drawn) [NSC 661238]
NCI-60 cancer panel
  Mean GI50: −4.47 log^10 molar
